Measurements from the supplement of paper PMC13380429.

What was measured:
Details in all cases: 72 h
[1] = system: Calu-3; test: drug sensitivity score (DSS) for viability; higher = more toxic; extreme values may be limits of the assay
[2] = system: HepG2; test: as above
[3] = system: U2OS; test: as above
[4] = system: Caco-2; test: as above
[5] = system: Calu-3; test: relative viability EC50 (midpoint between 100% and the lowest measured viability); higher = less toxic
[6] = system: HepG2; test: as above
[7] = system: U2OS; test: as above
[8] = system: Caco-2; test: as above
[9] = system: Calu-3; test: cell viability relative to DMSO; higher = less toxic
[10] = system: HepG2; test: as above
[11] = system: U2OS; test: as above
[12] = system: Caco-2; test: as above
[13] = system: Vero E6; test: drug sensitivity score (DSS) for viability; higher = more toxic; extreme values may be limits of the assay
[14] = system: Vero E6; test: relative viability EC50 (midpoint between 100% and the lowest measured viability); higher = less toxic
[15] = system: Vero E6; test: cell viability relative to DMSO; higher = less toxic

Row | SMILES | drug sensitivity score [1] | drug sensitivity score [2] | drug sensitivity score [3] | drug sensitivity score [4] | relative viability EC50 [5] | relative viability EC50 [6] | relative viability EC50 [7] | relative viability EC50 [8] | cell viability ([9]; 1 nM) | cell viability ([9]; 10 nM) | cell viability ([9]; 100 nM) | cell viability ([9]; 1000 nM) | cell viability ([9]; 10000 nM) | cell viability ([10]; 1 nM) | cell viability ([10]; 10 nM) | cell viability ([10]; 100 nM) | cell viability ([10]; 1000 nM) | cell viability ([10]; 10000 nM) | cell viability ([11]; 1 nM) | cell viability ([11]; 10 nM) | cell viability ([11]; 100 nM) | cell viability ([11]; 1000 nM) | cell viability ([11]; 10000 nM) | cell viability ([12]; 1 nM) | cell viability ([12]; 10 nM) | cell viability ([12]; 100 nM) | cell viability ([12]; 1000 nM) | cell viability ([12]; 10000 nM) | drug sensitivity score [13] | relative viability EC50 [14] | cell viability ([15]; 1 nM) | cell viability ([15]; 10 nM) | cell viability ([15]; 100 nM) | cell viability ([15]; 1000 nM) | cell viability ([15]; 10000 nM)
1 | CN1CCC[C@@H]1Cc1c[nH]c2ccc(CCS(=O)(=O)c3ccccc3)cc12 [eletriptan] | 0.1 | 0 | 0 | 0 | > 10 µM | > 10 µM | > 10 µM | > 10 µM | 88.5% | 102% | 97.8% | 95.2% | 87.3% | 103% | 99.6% | 96.7% | 95.6% | 97% | 98.6% | 104% | 94.6% | 104% | 96.3% | 96.5% | 98% | 104% | 105% | 96.1% |  |  |  |  |  |  | 
2 | COC(=O)Nc1nc2cc(Sc3ccccc3)ccc2[nH]1 [fenbendazole] | 1 | 5.6 | 4.1 | 3.8 | > 10 µM | 1.39 µM |  |  | 98.1% | 86.1% | 97.7% | 83.6% | 86.4% | 103% | 105% | 93.3% | 79.1% | 41% | 103% | 97.8% | 101% | 83.5% | 61.7% | 94.2% | 95.8% | 104% | 81.3% | 66.2% | 4.5 | 1.81 µM | 105% | 108% | 104% | 90.2% | 46.7%
3 | CCCCC1=NC2(CCCC2)C(=O)N1Cc1ccc(-c2ccccc2-c2nnn[nH]2)cc1 [irbesartan] | 0 | 0 |  | 0 | > 10 µM | > 10 µM |  | > 10 µM | 100% | 97.1% | 100% | 101% | 108% | 107% | 104% | 102% | 99.9% | 106% |  |  |  |  |  | 109% | 97.1% | 106% | 104% | 109% | 0 | > 10 µM | 100% | 101% | 99.7% | 93.6% | 94.6%
4 | C#C[C@]1(O)CC[C@H]2[C@@H]3CCc4cc(OC)ccc4[C@H]3CC[C@@]21C [mestranol] | 0 | 0 | 0 | 0.4 | > 10 µM | > 10 µM | > 10 µM | > 10 µM | 89.6% | 102% | 108% | 104% | 103% | 113% | 104% | 107% | 103% | 97.5% | 102% | 98.6% | 96.7% | 101% | 96.1% | 96.8% | 106% | 102% | 100% | 82.7% |  |  |  |  |  |  | 
